Results reported in PMC12040169 (PLOS Biology, 2025).

assay: in vitro; conditions: human, hela cells, % viability

Structure (SMILES)	viability at 28.5 h, 10 µM [%]
O=S1(=O)CCN(Cc2ccc3c(c2)OCCCO3)CC1 [CBK074831]	101
COc1ccccc1N1CCN(CCCCNS(=O)(=O)c2ccc(Cl)c(Cl)c2)CC1 [CBK074837]	97.8
O=C(CN1C(=O)c2ccccc2C1=O)N1CCN(Cc2ccc3c(c2)OCO3)CC1 [CBK074846]	97.3
O=C1c2cccc3cccc(c23)C(=O)N1CCN1CCN(CC(O)COc2ccc3c(c2)OCO3)CC1 (stereo not drawn) [CBK074849C]	87.4
OC(COCc1ccc2c(c1)OCO2)CN1CCN(C(c2ccccc2)c2ccccc2)CC1 (stereo not drawn) [CBK074850C]	83.2
OC(COCc1ccccc1)CN1CCN(c2ccccc2F)CC1 (stereo not drawn) [CBK074851C]	92.6
OC(COc1ccccc1)CN1CCN(Cc2ccccc2)CC1 (stereo not drawn) [CBK074852C]	93
OC(COCc1ccc(Cl)cc1)CN1CCN(C(c2ccccc2)c2ccccc2)CC1 (stereo not drawn) [CBK074857C]	86.3
CC(CN1CCN(Cc2ccccc2)CC1)N(C(=O)c1ccoc1)c1ccccn1 (stereo not drawn) [CBK074861C]	92.1
C=C(C)c1cccc(C(C)(C)NC(=O)N2CCC(C(=O)NC(c3ccc(OC)nc3)c3ccccc3C)CC2)c1 (stereo not drawn) [CBK074871]	92.2
Cc1ccc(-n2c(O)nnc2-c2ccc(Cl)c(Cl)c2)cc1 [CBK074887]	94.5
Oc1nnc(-c2ccc(Cl)c(Cl)c2)n1C1CCCCC1 [CBK074888]	97.9
c1ccc(CNc2nnc(-c3ccccc3)s2)cc1 [CBK074928]	87.7
COC(=O)CCC(=O)N1CCc2c([nH]c3ccccc23)C12CCN(CCCc1ccccc1OC)C2 (stereo not drawn) [CBK074952]	93.9
Cn1c(-c2ccc(C(=O)O)cc2)cc2oc(-c3ccccc3)nc2c1=O [CBK074957]	98
CSc1nnc(-c2ccccc2[N+](=O)[O-])n1CC(C)C [CBK074959]	98.4
COc1ccc([C@@]23CC[C@@H](NC(=O)c4ccc(F)c(C(F)(F)F)c4)C[C@@H]2N(C)CC3)cc1OC [CBK074967T]	93.6
O=S(=O)(Nc1cc(OC2CCNCC2)c2occc2c1)c1c(Cl)cccc1Cl [CBK074989C]	64.3
CCCc1[nH]nc(O)c1Cc1ccc(Cl)cc1 [CBK075013]	90
CCCc1[nH]nc(O)c1Cc1ccc(F)cc1F [CBK075015]	85.7
CCCc1[nH]nc(O)c1Cc1ccc(C(C)(C)C)cc1 [CBK075028]	79.5

Structure (SMILES)	viability at 28.5 h, 10 µM [%]
CCCc1[nH]nc(O)c1Cc1c(F)cccc1[N+](=O)[O-] [CBK075029]	89.5
CCCc1[nH]nc(O)c1Cc1cc(C(F)(F)F)ccc1Cl [CBK075032]	96.9
CCCc1[nH]nc(O)c1Cc1ccc(C(C)C)cc1 [CBK075033]	106
CCCc1[nH]nc(O)c1Cc1ccccc1-c1ccccc1 [CBK075034]	97.2
CC(C)(C)c1nn(CC2CCCCC2)c(=N)s1 [CBK075042]	96.2
CC(C)(C)c1nnc(NCC2CCCCC2)s1 [CBK075043]	101
CCc1nnc(NCC2CCCCC2)s1 [CBK075044]	88.1
COc1ccc(C(NC(=O)[C@H]2CCCN2C(=O)NCc2ccccc2C)c2ccccc2C)cn1 (stereo partly drawn) [CBK075051]	90.9
COc1ccc(C(NC(=O)[C@H]2CCCN2C(=O)Cc2cccs2)c2ccccc2C)cn1 (stereo partly drawn) [CBK075053]	87
CCCc1[nH]nc(O)c1CCc1cccc(OC)c1OC [CBK075078]	97
CCCc1[nH]nc(O)c1CCc1ccccc1F [CBK075080]	88.5
CCCc1[nH]nc(O)c1CCc1ccccc1C(F)(F)F [CBK075081]	93.9
CCCCNC(=S)N1CC[C@@H]2CN(C)C[C@]2(c2ccc(OC)c(OC)c2)C1 [CBK075101T]	100
COc1ccc([C@]23CN(C)C[C@H]2CCN(C(=O)c2cccc(Br)c2)C3)cc1OC [CBK075111T]	96.7
CCCc1[nH]nc(O)c1-c1cccc2ccccc12 [CBK075125]	94
COc1ccccc1-c1c(O)n[nH]c1CCC1CCCC1 [CBK075128]	97.5
CC(C)Cc1[nH]nc(O)c1-c1ccccc1 [CBK075134]	103
CCCc1[nH]nc(O)c1-c1ccc(OC)cc1 [CBK075135]	96.1
C=CCN1C(=O)C2(CC(=O)N(C)C2=O)c2ccccc21 (stereo not drawn) [CBK075137]	93.6
CCN1C(=O)CC2(C1=O)C(=O)N(CC)c1ccc(C)cc12 (stereo not drawn) [CBK075140]	99.4
COc1ccc2c(c1)C1(CC(=O)N(C)C1=O)C(=O)N2C (stereo not drawn) [CBK075146]	115

Structure (SMILES)	viability at 28.5 h, 10 µM [%]
COc1ccc2c(c1)C1(CC(=O)N(CCC3CCCCC3)C1=O)C(=O)N2C (stereo not drawn) [CBK075147]	120
COc1ccc2c(c1)C1(CC(=O)N(Cc3ccc(OC)c(OC)c3)C1=O)C(=O)N2C (stereo not drawn) [CBK075157]	94.4
C=CCN1C(=O)CC2(C1=O)C(=O)N(C)c1ccc(OC)cc12 (stereo not drawn) [CBK075158]	101
C=CCN1C(=O)C2(CC(=O)N(CCC3CCCCC3)C2=O)c2ccccc21 (stereo not drawn) [CBK075160]	107
CN1C(=O)CC2(C1=O)C(=O)N(Cc1ccccc1)c1ccc(F)cc12 (stereo not drawn) [CBK075163]	90.5
COc1ccc2c(c1)C1(CC(=O)N(CCOc3ccccc3)C1=O)C(=O)N2C (stereo not drawn) [CBK075168]	95.2
COc1ccc(CN2C(=O)CC3(C2=O)C(=O)N(Cc2ccccc2)c2ccc(F)cc23)cc1OC (stereo not drawn) [CBK075174]	108
O=C1CC2(C(=O)N1CCC1CCCCC1)C(=O)N(Cc1ccccc1)c1ccc(F)cc12 (stereo not drawn) [CBK075175]	91
CNC(=O)CN1C(=O)CC2(C1=O)C(=O)N(C)c1ccc(OC)cc12 (stereo not drawn) [CBK075190]	91.5
COc1cccc(CCN2C(=O)CC3(C2=O)C(=O)N(C)c2ccc(OC)cc23)c1 (stereo not drawn) [CBK075191]	94.6
COc1ccc2c(c1)C1(CC(=O)N(CC3CCCCC3)C1=O)C(=O)N2C (stereo not drawn) [CBK075201]	100
CCN1C(=O)C2(CC(=O)N(CC3CCCCC3)C2=O)c2cc(C)ccc21 (stereo not drawn) [CBK075216]	98.2
C=CCN1C(=O)C2(CC(=O)N(CC(=O)N(C)C)C2=O)c2cc(OC)ccc21 (stereo not drawn) [CBK075227]	92.3
CN1C(=O)C2(CC(=O)N(CCC3CCCCC3)C2=O)c2cc(Cl)ccc21 (stereo not drawn) [CBK075231]	92
CN(C)C(=O)CN1C(=O)CC2(C1=O)C(=O)N(C)c1ccc(Cl)cc12 (stereo not drawn) [CBK075232]	90.2
CCN1C(=O)C2(CC(=O)N(CCOC)C2=O)c2cc(Cl)ccc21 (stereo not drawn) [CBK075244]	121
CN1C(=O)CC2(C1=O)C(=O)N(C)c1ccc(F)cc12 (stereo not drawn) [CBK075290]	105
C=CCN1C(=O)C2(CC(=O)N(CCCN(C)S(C)(=O)=O)C2=O)c2cc(F)ccc21 (stereo not drawn) [CBK075319]	100
COCCN1C(=O)C2(CC(=O)N(CCc3scnc3C)C2=O)c2cc(Cl)ccc21 (stereo not drawn) [CBK075321]	93.6
COCCN1C(=O)C2(CC(=O)N(CCOc3ccccc3)C2=O)c2ccccc21 (stereo not drawn) [CBK075322]	98.5
COCCN1C(=O)C2(CC(=O)N(CC(=O)C(C)(C)C)C2=O)c2ccccc21 (stereo not drawn) [CBK075324]	118

Structure (SMILES)	viability at 28.5 h, 10 µM [%]
CN(C)C(=O)CCCN1C(=O)CC2(C1=O)C(=O)N(C)c1ccc(F)cc12 (stereo not drawn) [CBK075380]	103
COCCN1C(=O)C2(CC(=O)N(C)C2=O)c2ccccc21 (stereo not drawn) [CBK075387]	102
CNC(=O)CN1C(=O)CC2(C1=O)C(=O)N(CCOC)c1ccc(C)cc12 (stereo not drawn) [CBK075401]	97.1
CN1C(=O)CC2(C1=O)C(=O)N(CCCCOc1ccccc1)c1ccc(F)cc12 (stereo not drawn) [CBK075408]	96
C=CCN1C(=O)CC2(C1=O)C(=O)N(CCn1cnc3c1c(=O)n(C)c(=O)n3C)c1ccc(Cl)cc12 (stereo not drawn) [CBK075410]	94.8
C=CCN1C(=O)CC2(C1=O)C(=O)N(CCCn1c(=O)n(C)c3ccccc31)c1ccc(Cl)cc12 (stereo not drawn) [CBK075411]	94.6
CN1C(=O)CC2(C1=O)C(=O)N(CC(=O)c1ccccc1)c1ccc(F)cc12 (stereo not drawn) [CBK075420]	95.4
COCCN1C(=O)C2(CC(=O)N(CC(=O)N(C)C)C2=O)c2cc(F)ccc21 (stereo not drawn) [CBK075428]	104
COc1ccccc1OCCCN1C(=O)C2(CC(=O)N(C)C2=O)c2cc(F)ccc21 (stereo not drawn) [CBK075430]	88.2
C=CCN1C(=O)CC2(C1=O)C(=O)N(CCCN(C)S(C)(=O)=O)c1ccc(Cl)cc12 (stereo not drawn) [CBK075432]	97.3
C=CCN1C(=O)CC2(C1=O)C(=O)N(Cc1nnc(-c3ccc(C)cc3)o1)c1ccc(Cl)cc12 (stereo not drawn) [CBK075434]	104
CN1C(=O)CC2(C1=O)C(=O)N(CCCn1c(=O)n(C)c3ccccc31)c1ccc(F)cc12 (stereo not drawn) [CBK075441]	110
CN1C(=O)CC2(C1=O)C(=O)N(Cc1nc(-c3ccc(Cl)cc3)no1)c1ccc(F)cc12 (stereo not drawn) [CBK075442]	87.8
CN1C(=O)CC2(C1=O)C(=O)N(CCN1C(=O)c3ccccc3C1=O)c1ccc(F)cc12 (stereo not drawn) [CBK075451]	89.5
Cc1ccc(-c2nnc(CN3C(=O)C4(CC(=O)N(C)C4=O)c4cc(F)ccc43)o2)cc1 (stereo not drawn) [CBK075453]	110
CN1C(=O)C2(CC(=O)N(CCC3CCCCC3)C2=O)c2ccccc21 (stereo not drawn) [CBK075461]	109
C=CCN1C(=O)CC2(C1=O)C(=O)N(C)c1ccccc12 (stereo not drawn) [CBK075472]	99
CCN1C(=O)CC2(C1=O)C(=O)N(CCCOc1ccccc1OC)c1ccccc12 (stereo not drawn) [CBK075498]	109
CCN1C(=O)CC2(C1=O)C(=O)N(Cc1cccc(CN3C(=O)CCC3=O)c1)c1ccccc12 (stereo not drawn) [CBK075508]	104
CN1C(=O)CC2(C1=O)C(=O)N(CCCOc1ccc(F)cc1)c1ccccc12 (stereo not drawn) [CBK075513]	108
CCN1C(=O)CC2(C1=O)C(=O)N(CCCOc1ccccc1)c1ccc(OC)cc12 (stereo not drawn) [CBK075585]	98
